Key:
BJAB cells = assay: Cytotoxicity assessment, flow cytometry with 7-AAD and FITC-Annexin V; type: cell-based; conditions: virus-negative BJAB cells, NMDI-1 between 5 and 50 μM, 48 h
Experimental: (§1) FIG. 11. Cytotoxicity assessment of NMDI-1 treatment. (A, B) Flow cytometry analysis of virus-negative Burkitt lymphoma BJAB (A) or AGS (B) cells treated with 5 to 100 μM NMDI-1 or DMSO (‘0 μM’ NMDI-1) for 48 h and stained with 7-AAD and FITC-Annexin V. Data are presented as mean percentage of live (orange, Annexin V^−/7-AAD^−), apoptotic (blue, […]), and necrotic (red, Annexin V^+/7-AAD^+) cells for three biological replicates. 1 μM staurosporine treatment served as positive control for apoptosis/necrosis induction.
(§2) AGS-EBV and HEK293T.rKSHV219 cells were seeded into 12-well plates and transfected with UPF1-specific or non-targeting control siRNAs for 24 to 120 h as indicated. As a positive control for reactivation, cells were treated with 2.5 mM NaB for 24 h. For microscopy, cells were incubated with Hoechst nucleic acid stain (1:2000, Invitrogen) in PBS for 5 min at RT, after which DAPI, as well as GFP or RFP were imaged using a fluorescence microscope (Omano). For flow cytometry analysis of GFP and RFP expression, cells were fixed in 4% paraformaldehyde in PBS and analyzed on an LSRFortessa (BD Biosciences). […] Data were analyzed using the Flowjo software (BD Biosciences).

EBV = EBV reactivation: qRT-PCR of EBV lytic gene expression after NMDI-1 treatment; type: cell-based; conditions: 25 μM NMDI-1, qRT-PCR, relative to Mock
Experimental: (§3) FIG. 4. Small-molecule NMD inhibitor NMDI-1 is a potent inducer of EBV and KSHV reactivation. (A-C) qRT-PCR analysis of EBV BZLF1, BRLF1, BMRF1, BLLF1b, and/or BcLF1 transcripts in EBV^+ AKBM (A), AGS-EBV (B), or LCL (C) cells treated with 25 μM NMDI-1 for 12 to 120 h, presented as fold expression relative to Mock-treated samples. (D-G) qRT-PCR analysis of Orf26, Orf50, Orf57, or Orf74 transcripts in KSHV^+ iSLK.rKSHV219 (D), HEK293T.rKSHV219 (E), BC3 (F), and BCBL1 (G) cells treated with 25 μM NMDI-1 for 24 to 120 h, presented as fold expression relative to Mock-treated samples. Data are representative of at least two (A, C) or three (B, D, E, F, G) independent experiments and presented as mean±SD of three biological replicates; ns, p>0.05, * p≤0.05, ** p≤0.01, *** p≤0.001.
(§4) Total RNA was extracted from cells using the E.Z.N.A. HP Total RNA Isolation Kit (OMEGA Bio-Tek) according to the manufacturer's instructions. Reverse transcription and qRT—PCR were performed using equal amounts (50-500 ng) of the purified RNA and the SuperScript III Platinum One-Step qRT-PCR kit with ROX (Invitrogen) on a 7500 Fast Real-Time PCR Machine (Applied Biosystems). Premixed master mixes of TaqMan primers and probes for the detection of human transcripts were purchased from Applied Biosystems (18S) or IDT (GAPDH, UPF1, UPF2, UPF3a, UPF3b, SMG1, SMG5, SMG6, SMG7, STAU1, STAU2, GADD45B, PDRG1, RPL32, HPRT1, MAP3K14). […] Abundance of target genes was calculated by normalizing for cellular 18S or GAPDH using the Comparative CT (ΔΔCt) method. […]

[1] = tested on: EBV transcripts in AGS-EBV cells; assay: qRT-PCR of EBV transcript abundance in TPA-treated AGS-EBV cells with or without NMDI-1; type: cell-based; conditions: 5 ng/mL TPA, 25 μM NMDI-1, 24 h
Text: FIG. 3. NMD controls the abundance of the polycistronic EBV transactivator transcripts and Rta protein expression. (A) Schematic of the EBV transactivator locus and the three transcripts expressed from this locus. Dashed lines mark spliced introns; CDS, coding sequence; Rp, EBV BRLF1 promoter; Zp, EBV BZLF1 promoter; pA, 3′-polyadenylation site; green bar, location of the Northern blotting probe used in F and I. (B) qRT-PCR analysis of BRLF1 transcripts in HEK293T cells transfected with 0, 20, 40, or 60 nM UPF1-targeting siRNA for 24 h, followed by transfection of a plasmid encoding the complete EBV transactivator locus (left panel, orange) or the BRLF1 coding sequence (CDS) only (right panel, blue), together with pcDNA3-nlsGFP (internal control) for 48 h. Data was normalized to GFP transcript levels to control for differences in transfection efficiency and presented as fold abundance relative to cells without si.UPF1 (−). (C) qRT-PCR analysis of BZLF1 transcripts in HEK293T cells transfected with increasing amounts of si.UPF1 for 24 has in (B), followed by transfection for 48 h with a plasmid encoding the EBV BZLF1 locus (left panel, orange) or the BZLF1 CDS (right panel, blue), together with pcDNA3-nlsGFP (internal control). […] See 10E Fig for quantification of effects. […] See S6F Fig for quantification of effects. […] See S6G Fig for quantification of effects. […]

[2] = concentrations below those used in this study (25 μM); cited from earlier work
KSHV = KSHV reactivation: qRT-PCR of KSHV lytic transcripts after NMDI-1 treatment; type: cell-based; conditions: 25 μM NMDI-1, 24 to 120 h
Experimental: as §3, §4

AGS cells = assay: Cytotoxicity assessment, flow cytometry with 7-AAD and FITC-Annexin V; type: cell-based, human; conditions: NMDI-1 between 5 and 50 μM, 48 h
Experimental: as §1, §2

**Q.** Which cell viability (BJAB cells) does the source give for `Cc1c2ccnc(Cl)c2c(C)c2c1[nH]c1ncccc12` [NMDI-1] here?
**A.** Its cell viability is “did not or only minimally affect cell viability”.

**Q.** What about the “EBV lytic gene expression” value (EBV; AGS-EBV cells) of the same compound?
**A.** The value was “potent induction of lytic gene expression”.

**Q.** What about the “EBV lytic gene expression (BZLF1, BMRF1, BLLF1, BcLF1)” value (EBV; EBV+ AKBM cells) of the same compound?
**A.** Its value is “striking induction of EBV lytic gene expression”.

**Q.** What about the “EBV lytic gene expression” value (EBV; EBV-transformed LCL cells from healthy-donor primary B cells) of the same compound?
**A.** The value was “potent induction of lytic gene expression”.

**Q.** What about the “BRLF1 transcript abundance compared to the mock-treated control” value [1] of the same compound?
**A.** The value was “significant increase in BRLF1 transcript abundance”.

**Q.** And the “levels of other EBV transcripts (BNRF1, BcLF1, BLLF1)” value [1]?
**A.** The value was “not significantly affected”.

**Q.** And the “toxicity in in vivo studies” value [2]?
**A.** The value was “without apparent toxicity”.

**Q.** And the “KSHV lytic transcripts Orf50, Orf26, Orf57 and/or Orf74” value (shortened to “KSHV lytic transcripts Orf50, Orf26”) (KSHV; KSHV+ BC3 PEL cells)?
**A.** The value was “induced potent expression of the KSHV lytic transcripts”.

**Q.** And the “KSHV lytic transcripts Orf50, Orf26” value (KSHV; KSHV+ BCBL1 PEL cells)?
**A.** The value was “induced potent expression of the KSHV lytic transcripts”.

**Q.** What about the “KSHV lytic transcripts Orf50, Orf26” value (KSHV; KSHV+ HEK293T.rKSHV219 cells) of the same compound?
**A.** Its value is “induced potent expression of the KSHV lytic transcripts”.

**Q.** What about the “KSHV lytic transcripts Orf50, Orf26” value (KSHV; KSHV+ iSLK.rKSHV219 cells) of the same compound?
**A.** Its value is “induced potent expression of the KSHV lytic transcripts”.

**Q.** What about the cell viability (AGS cells) of the same compound?
**A.** The cell viability was “did not or only minimally affect cell viability”.

Source: patent US20240050426A1, “TREATING VIRAL INFECTION WITH NMD INHIBITORS” (The Cleveland Clinic Foundation, priority 2021, published 2024)
